{
  "source": "PubChem BioAssay AID1549",
  "about": "(Sanford-Burnham Center for Chemical Genomics, 2009)",
  "biological_target": "Influenza A virus M2 proton channel (A/TW/4845/1999 H1N1)",
  "assay": "M2 proton channel binding, NMR based, influenza A virus H1N1 strain (AID 1549)",
  "conditions": "NMR binding screen, M2 protein",
  "note": "Calls of active or inactive are those of the source. How the calls were made is not given here.",
  "data": [
    {"smiles": "OC1CCN(C(=S)NC2CC2)CC1", "values": [
      {"measurement": "Kd", "result": "> 4 mM (inactive)"}
    ]},
    {"smiles": "CC(C)n1c(-c2ccncc2)n[nH]c1=S", "values": [
      {"measurement": "Kd", "result": "> 4 mM (inactive)"}
    ]},
    {"smiles": "CCCn1cnc2sc(C(N)=O)c(C)c2c1=O", "values": [
      {"measurement": "Kd", "result": "> 4 mM (inactive)"}
    ]},
    {"smiles": "CC(=O)Oc1c2c(c(CC=C(C)C)c3c1C(=O)C1=C[C@@H]4CC5C(C)(C)OC(C/C=C(\\C)C(=O)O)(C4=O)[C@@]15O3)OC(C)(CCC=C(C)C)C=C2", "note": "(stereo partly drawn)", "values": [
      {"measurement": "Kd", "result": "> 4 mM (inactive)"}
    ]},
    {"smiles": "O=c1c2ccccc2oc2ccccc12", "values": [
      {"measurement": "Kd", "result": "> 4 mM (inactive)"}
    ]},
    {"smiles": "O=C(NS(=O)(=O)c1ccccc1)c1ccccc1F", "values": [
      {"measurement": "Kd", "result": "> 4 mM (inactive)"}
    ]},
    {"smiles": "C=CCCCCCCCCCCCC(O)CC(O)CO", "note": "(stereo not drawn) (tested in a mixture with another compound)", "values": [
      {"measurement": "Kd", "result": "> 4 mM (inactive)"}
    ]},
    {"smiles": "Cc1c(C(=O)NCc2ccccn2)oc2ccccc12", "values": [
      {"measurement": "Kd", "result": "> 4 mM (inactive)"}
    ]},
    {"smiles": "CC(=O)CS(=O)(=O)c1ccccc1", "values": [
      {"measurement": "Kd", "result": "> 4 mM (inactive)"}
    ]},
    {"smiles": "COc1cc(/C=C/C(=O)O)ccc1O", "values": [
      {"measurement": "Kd", "result": "> 4 mM (inactive)"}
    ]},
    {"smiles": "O=C(NC1CCS(=O)(=O)C1)c1ccccc1", "note": "(stereo not drawn)", "values": [
      {"measurement": "Kd", "result": "> 4 mM (inactive)"}
    ]},
    {"smiles": "CN1CCN(Cc2cccnc2)CC1", "values": [
      {"measurement": "Kd", "result": "> 4 mM (inactive)"}
    ]},
    {"smiles": "Cc1cc(Oc2ccccc2)nc(N)n1", "values": [
      {"measurement": "Kd", "result": "> 4 mM (inactive)"}
    ]},
    {"smiles": "N=C1/C(=C\\c2ccccc2)C(=O)N=C2SC=NN12", "values": [
      {"measurement": "Kd", "result": "> 4 mM (inactive)"}
    ]},
    {"smiles": "CC(C)CCn1cnc2c1c(=O)n(C)c(=O)n2C", "values": [
      {"measurement": "Kd", "result": "> 4 mM (inactive)"}
    ]},
    {"smiles": "Fc1cccc(F)c1CN1CCN(c2ncccn2)CC1", "values": [
      {"measurement": "Kd", "result": "> 4 mM (inactive)"}
    ]},
    {"smiles": "O=C1CSC(=Nc2cccc(C(F)(F)F)c2)N1", "values": [
      {"measurement": "Kd", "result": "> 4 mM (inactive)"}
    ]},
    {"smiles": "CN(Cc1nc2ccccc2n1C)C(=O)c1cccs1", "values": [
      {"measurement": "Kd", "result": "> 4 mM (inactive)"}
    ]},
    {"smiles": "Cn1nccc1N", "values": [
      {"measurement": "Kd", "result": "> 4 mM (inactive)"}
    ]},
    {"smiles": "O=C(O)C(O)C(O)C(O)C(O)C(=O)O", "note": "(stereo not drawn)", "values": [
      {"measurement": "Kd", "result": "> 4 mM (inactive)"}
    ]},
    {"smiles": "CCCCN1C(=O)C2CC/C(=N/O)CC2C1=O", "note": "(stereo not drawn)", "values": [
      {"measurement": "Kd", "result": "> 4 mM (inactive)"}
    ]},
    {"smiles": "CC(=O)c1nnc2cc(C)nn2c1C", "values": [
      {"measurement": "Kd", "result": "> 4 mM (inactive)"}
    ]},
    {"smiles": "CCOc1ccc(C(=O)c2ccc(O)c(O)c2O)cc1", "values": [
      {"measurement": "Kd", "result": "> 4 mM (inactive)"}
    ]},
    {"smiles": "O=C(O)CCC(=O)Nc1ccccn1", "values": [
      {"measurement": "Kd", "result": "> 4 mM (inactive)"}
    ]},
    {"smiles": "OCc1cc(F)cc2c1OCOC2", "values": [
      {"measurement": "Kd", "result": "> 4 mM (inactive)"}
    ]},
    {"smiles": "O=[n+]1cc(C2=CC=CCC2)n([O-])c2c1CCCCC2", "values": [
      {"measurement": "Kd", "result": "> 4 mM (inactive)"}
    ]},
    {"smiles": "c1ccc2c(c1)nnn2C1CCNCC1", "values": [
      {"measurement": "Kd", "result": "> 4 mM (inactive)"}
    ]},
    {"smiles": "NC(=O)c1cc(N)ccc1N1CCCCC1", "values": [
      {"measurement": "Kd", "result": "> 4 mM (inactive)"}
    ]},
    {"smiles": "COC(=O)c1c(C)cc(OC(=O)c2c(C)cc(O)c(C=O)c2O)c(C)c1O", "values": [
      {"measurement": "Kd", "result": "> 4 mM (inactive)"}
    ]},
    {"smiles": "OC[C@H]1O[C@@](CO)(O[C@@H]2O[C@H](CO)[C@@H](O)[C@H](O)[C@H]2O)[C@@H](O[C@@H]2O[C@H](CO)[C@@H](O)[C@H](O)[C@H]2O)[C@@H]1O", "values": [
      {"measurement": "Kd", "result": "> 4 mM (inactive)"}
    ]},
    {"smiles": "Nc1c(C(=O)O)sc2ncccc12", "values": [
      {"measurement": "Kd", "result": "> 4 mM (inactive)"}
    ]},
    {"smiles": "NC(=O)c1cc(Cl)c(C(N)=O)cc1Cl", "values": [
      {"measurement": "Kd", "result": "> 4 mM (inactive)"}
    ]},
    {"smiles": "Nc1ccc(NS(=O)(=O)c2ccc(N)cc2)cc1", "values": [
      {"measurement": "Kd", "result": "> 4 mM (inactive)"}
    ]},
    {"smiles": "Cc1occc1C(=O)N1CCN(S(C)(=O)=O)CC1", "values": [
      {"measurement": "Kd", "result": "> 4 mM (inactive)"}
    ]},
    {"smiles": "O=C1N=c2ccccc2=C1c1sc(=S)[nH]c1O", "values": [
      {"measurement": "Kd", "result": "> 4 mM (inactive)"}
    ]},
    {"smiles": "CCC(C)C(=O)OC1[C@@H]2CC3=C4CC(=O)O[C@@H](c5ccoc5)[C@]4(C)CCC3C(C)(C2=O)[C@@H](CC(=O)OC)C1(C)C", "note": "(stereo partly drawn)", "values": [
      {"measurement": "Kd", "result": "> 4 mM (inactive)"}
    ]},
    {"smiles": "C[C@H]1OC(O[C@H]2[C@@H](O)CC(O[C@H]3[C@@H](O)C[C@H](O[C@H]4CC[C@]5(C)C6CC[C@]7(C)[C@@H](C8=CC(=O)OC8)[C@@H](O)C[C@]7(O)[C@@H]6CC[C@@H]5C4)O[C@@H]3C)O[C@@H]2C)C[C@H](O)C1O", "note": "(stereo partly drawn)", "values": [
      {"measurement": "Kd", "result": "> 4 mM (inactive)"}
    ]},
    {"smiles": "O=C(Nc1ccc(Cl)cn1)c1cnn2cccnc12", "values": [
      {"measurement": "Kd", "result": "> 4 mM (inactive)"}
    ]},
    {"smiles": "COc1ccc(-c2coc3c(O)c(OC)ccc3c2=O)cc1", "values": [
      {"measurement": "Kd", "result": "> 4 mM (inactive)"}
    ]},
    {"smiles": "OCc1csc(-c2cccs2)n1", "values": [
      {"measurement": "Kd", "result": "> 4 mM (inactive)"}
    ]},
    {"smiles": "OC1CC(c2ccccc2)NC2(CCCC2)C1", "note": "(stereo not drawn)", "values": [
      {"measurement": "Kd", "result": "> 4 mM (inactive)"}
    ]},
    {"smiles": "CN1CCC(=NNC(=O)c2ccco2)CC1", "values": [
      {"measurement": "Kd", "result": "> 4 mM (inactive)"}
    ]},
    {"smiles": "C=C[C@@H](C1=CC(=O)C(OC)=C(OC)C1=O)c1ccccc1", "values": [
      {"measurement": "Kd", "result": "> 4 mM (inactive)"}
    ]}
  ]
}
